Experimental data: US20050032873A1, “3-Amino chroman and 2-amino tetralin derivatives” (Wyeth, priority 2003, published 2005)
Where a name gives a salt, the structure may show the parent alone.

With `CCCN(CCCc1c[nH]c2ccc(F)cc12)C1CCc2c(F)ccc(OC)c2C1` (centres unmarked) (as salt: hydrochloride) [Compound 51, N-[3-(5-fluoro-1H-indol-3-yl)propyl]-N-(5-fluoro-8-methoxy-1,2,3,4-tetrahydronaphthalen-2-yl)-N-propylamine] the melting point was 107 °C (dec.). For `C[C@@H](CCN(C1CCC1)[C@H]1COc2c(F)ccc(C(N)=O)c2C1)c1c[nH]c2ccc(F)cc12` (as salt: hydrochloride) [Compound 153a, (3R)-3-{cyclobutyl[(3S)-3-(5-fluoro-1H-indol-3-yl)butyl]amino}-8-fluorochromane-5-carboxamide], the melting point was 160 to 168 °C (dec.). In the case of `CCN(CCCCc1coc2ccccc12)C1COc2cccc(OC)c2C1` (centres unmarked) (as salt: hydrochloride) [Compound 22, N-[4-(1-benzofuran-3-yl)butyl]-N-ethyl-N-(5-methoxy-3,4-dihydro-2H-chromen-3-yl)amine], the melting point is reported as 152 to 154 °C. In the case of `O=C(Nc1ccccc1)c1ccc(F)c2c1CC(N(CCCc1c[nH]c3ccc(F)cc13)C1CCC1)CO2` (centres unmarked) (as salt: hydrochloride) [Compound 70, 3-{cyclobutyl[3-(5-fluoro-1H-indol-3-yl)propyl]amino}-8-fluoro-N-phenylchromane-5-carboxamide], the melting point is reported as 136 °C (dec.). For `COc1cccc2c(CCN(C3CCC3)C3COc4c(F)ccc(C(N)=O)c4C3)coc12` (centres unmarked) (as salt: hydrochloride) [Compound 159, 3-{cyclobutyl[2-(7-methoxy-1-benzofuran-3-yl)ethyl]amino}-8-fluorochromane-5-carboxamide], the melting point was 135 to 145 °C (dec.). In the case of `CCN(CCc1c[nH]c2ccc(F)cc12)C1COc2c(F)ccc(C(N)=O)c2C1` (centres unmarked) (as salt: hydrochloride) [Compound 76, 3-{ethyl[2-(5-fluoro-1H-indol-3-yl)ethyl]amino}-8-fluorochromane-5-carboxamide], the melting point is reported as 127 °C (dec.). In the case of `CCCN(CCCCc1c[nH]c2ccc(F)cc12)C1COc2c(F)ccc(C(=O)NC)c2C1` (centres unmarked) (as salt: hydrochloride) [Compound 93, 8-fluoro-3-[[4-(5-fluoro-1H-indol-3-yl)butyl](propyl)amino]-N-methylchromane-5-carboxamide], the melting point is reported as 110 °C (dec.). With `NC(=O)c1ccc(F)c2c1CC(NCCCCc1c[nH]c3ccc(F)cc13)CO2` (centres unmarked) (as salt: hydrochloride) [Compound 79, 8-fluoro-3-{[4-(5-fluoro-1H-indol-3-yl)butyl]amino}chromane-5-carboxamide] the melting point was 52 °C (dec.). For `CNC(=O)c1ccc(F)c2c1CC(N(CCCCc1c[nH]c3ccc(F)cc13)CC1CC1)CO2` (centres unmarked) (as salt: hydrochloride) [Compound 94, 3-{(cyclopropylmethyl)[4-(5-fluoro-1H-indol-3-yl)butyl]amino}-8-fluoro-N-methylchromane-5-carboxamide], the melting point was 112 °C (dec.). In the case of `COc1cccc2c1CC(N(CCCc1c[nH]c3ccc(F)cc13)C1CC1)CO2` (centres unmarked) (as salt: hydrochloride) [Compound 41, N-cyclopropyl-N-[3-(5-fluoro-1H-indol-3-yl)propyl]-N-(5-methoxy-3,4-dihydro-2H-chromen-3-yl)amine], the melting point is reported as 115 °C (dec.). With `CCN(CCCc1c[nH]c2ccc(F)cc12)C1COc2cccc(OC)c2C1` (centres unmarked) (as salt: hydrochloride) [Compound 31, N-ethyl-N-[3-(5-fluoro-1H-indol-3-yl)propyl]-5-methoxychroman-3-amine] the melting point was 91.2 °C (dec.). In the case of `CNC(=O)c1ccc(F)c2c1CC(N(CCc1c[nH]c3ccc(F)cc13)CC1CC1)CO2` (centres unmarked) (as salt: hydrochloride) [Compound 86, 3-{(cyclopropylmethyl)[2-(5-fluoro-1H-indol-3-yl)ethyl]amino}-8-fluoro-N-methylchromane-5-carboxamide], the melting point is reported as 138 °C (dec.). For `COC(=O)c1ccc(F)c2c1C[C@@H](N(CCCCc1c[nH]c3ccc(F)cc13)C1CCC1)CO2` (as salt: hydrochloride) [Compound 58b, Methyl (3R)-3-{cyclobutyl[4-(5-fluoro-1H-indol-3-yl)butyl]amino}-8-fluorochromane-5-carboxylate], the melting point was 209 °C (dec.). For `CC(C1CC1)N(CCCc1c[nH]c2ccc(F)cc12)C1COc2c(F)ccc(C(N)=O)c2C1` (centres unmarked) (as salt: hydrochloride) [Compound 6, 3-{(1-cyclopropylethyl)[3-(5-fluoro-1H-indol-3-yl)propyl]amino}-8-fluorochromane-5-carboxamide], the melting point was 124 °C (dec.). In the case of `CCCN(CCCc1c[nH]c2ccc(F)cc12)C1COc2c(F)ccc(C(N)=O)c2C1` (centres unmarked) (as salt: hydrochloride) [Compound 2, 8-fluoro-3-{[3-(5-fluoro-1H-indol-3-yl)propyl](propyl)amino}chromane-5-carboxamide], the melting point is reported as 125 °C (dec.). With `CCN(CCc1coc2c(OC)cccc12)C1COc2c(F)ccc(C(N)=O)c2C1` (centres unmarked) (as salt: hydrochloride) [Compound 157, 3-{ethyl[2-(7-methoxy-1-benzofuran-3-yl)ethyl]amino}-8-fluorochromane-5-carboxamide] the melting point was 124 to 132 °C. With `NC(=O)c1ccc(F)c2c1OCC(N(CCCc1c[nH]c3c(F)cc(F)cc13)CC1CC1)C2` (centres unmarked) (as salt: hydrochloride) [Compound 130, 3-{(cyclopropylmethyl)[3-(5,7-difluoro-1H-indol-3-yl)propyl]amino}-5-fluorochromane-8-carboxamide] the melting point was 124 °C (dec.). For `CCN(CCCc1c[nH]c2c(OC)cccc12)C1COc2c(F)ccc(C(N)=O)c2C1` (centres unmarked) (as salt: hydrochloride) [Compound 101, 3-{ethyl[3-(7-methoxy-1H-indol-3-yl)propyl]amino}-8-fluorochromane-5-carboxamide], the melting point was 148 to 153 °C (dec.). For `NC(=O)c1ccc(F)c2c1CC(N(CCCc1c[nH]c3cc(F)ccc13)C1CCC1)CO2` (centres unmarked) (as salt: hydrochloride) [Compound 53, 3-{cyclobutyl[3-(6-fluoro-1H-indol-3-yl)propyl]amino}-8-fluorochromane-5-carboxamide], the melting point was 126 °C (dec.). In the case of `NC(=O)c1ccc(F)c2c1CC(NCCCc1c[nH]c3ccc(F)cc13)CO2` (single isomer, unassigned; (-)) (as salt: hydrochloride) [Compound 1b, (−)-8-fluoro-3-{[3-(5-fluoro-1H-indol-3-yl)propyl]amino}chromane-5-carboxamide], the melting point is reported as 87 °C (dec.). With `COc1ccc2[nH]cc(CCCN(CC3CC3)C3COc4c(F)ccc(C(N)=O)c4C3)c2c1` (centres unmarked) (as salt: hydrochloride) [Compound 108, 3-{(cyclopropylmethyl)[3-(5-methoxy-1H-indol-3-yl)propyl]amino}-8-fluorochromane-5-carboxamide] the melting point was 148 to 154 °C (dec.). For `CC(CCc1c[nH]c2c(F)cc(F)cc12)N(CC1CC1)C1COc2c(F)ccc(C(N)=O)c2C1` (single isomer, unassigned) (as salt: HCl) [Compound 154a, 3-{(cyclopropylmethyl)[3-(5,7-difluoro-1H-indol-3-yl)-1-methylpropyl]amino}-8-fluorochromane-5-carboxamide], the melting point was 160 to 165 °C. With `NC(=O)c1ccc(F)c2c1OCC(NCCCc1c[nH]c3ccc(F)cc13)C2` (centres unmarked) (as salt: hydrochloride) [Compound 119, 5-fluoro-3-{[3-(5-fluoro-1H-indol-3-yl)propyl]amino}chromane-8-carboxamide] the melting point was 124 °C (dec.). In the case of `N#Cc1ccc2[nH]cc(CCCN(C3CCC3)[C@H]3COc4c(F)ccc(C(N)=O)c4C3)c2c1` (as salt: hydrochloride) [Compound 97b, (3R)-3-[[3-(5-cyano-1H-indol-3-yl)propyl](cyclobutyl)amino]-8-fluorochromane-5-carboxamide], the melting point is reported as 166 to 171 °C (dec.). With `CN(C)C(=O)c1ccc(F)c2c1CC(N(CCCc1c[nH]c3ccc(F)cc13)C1CCC1)CO2` (centres unmarked) (as salt: hydrochloride) [Compound 73, 3-{cyclobutyl[3-(5-fluoro-1H-indol-3-yl)propyl]amino}-8-fluoro-N,N-dimethylchromane-5-carboxamide] the melting point was 126 °C (dec.). With `COC(=O)c1ccc(F)c2c1CC(NCCCCc1c[nH]c3ccc(F)cc13)CO2` (centres unmarked) (as salt: hydrochloride) [Compound 57, Methyl 8-fluoro-3-{[4-(5-fluoro-1H-indol-3-yl)butyl]amino}chromane-5-carboxylate] the melting point was 228 °C (dec.). With `NC(=O)c1ccc(F)c2c1CC(N(CCCc1c[nH]c3ccc(Cl)cc13)C1CCC1)CO2` (centres unmarked) (as salt: hydrochloride) [Compound 117, 3-[[3-(5-chloro-1H-indol-3-yl)propyl](cyclobutyl)amino]-8-fluorochromane-5-carboxamide] the melting point was 152 to 160 °C (dec.). In the case of `CCCN(CCC(O)c1csc2ccc(F)cc12)C1COc2c(F)ccc(C(N)=O)c2C1` (centres unmarked) (as salt: hydrochloride) [Compound 17, 8-fluoro-3-[[3-(5-fluoro-1-benzothien-3-yl)-3-hydroxypropyl](propyl)amino]chromane-5-carboxamide], the melting point is reported as 117 °C (dec.). For `NC(=O)c1ccc(F)c2c1OCC(NCCCCc1c[nH]c3ccc(F)cc13)C2` (centres unmarked) (as salt: hydrochloride) [Compound 123, 5-fluoro-3-{[4-(5-fluoro-1H-indol-3-yl)butyl]amino}chromane-8-carboxamide], the melting point was 119 °C (dec.). `CCCN(CCCc1coc2c(OC)cccc12)C1COc2c(F)ccc(C(N)=O)c2C1` (centres unmarked) (as salt: hydrochloride) [Compound 163, 8-fluoro-3-[[3-(7-methoxy-1-benzofuran-3-yl)propyl](propyl)amino]chromane-5-carboxamide] gave a melting point of 123 to 129 °C. `CCCN(CCc1coc2c(OC)cccc12)C1COc2c(F)ccc(C(N)=O)c2C1` (centres unmarked) (as salt: hydrochloride) [Compound 158, 8-fluoro-3-[[2-(7-methoxy-1-benzofuran-3-yl)ethyl](propyl)amino]chromane-5-carboxamide] gave a melting point of 125 to 132 °C. In the case of `CCN(CCCc1c[nH]c2c(Cl)cccc12)C1COc2c(F)ccc(C(N)=O)c2C1` (centres unmarked) (as salt: hydrochloride) [Compound 110, 3-[[3-(7-chloro-1H-indol-3-yl)propyl](ethyl)amino]-8-fluorochromane-5-carboxamide], the melting point is reported as 146 to 152 °C (dec.).
